Measurements taken from patent publication US11000033B2, “Ketone or oxime compound, and herbicide” (NISSAN CHEMICAL CORPORATION, priority 2014, dated 2021).

Tests used:
Assay type in all cases: in vivo
Setaria viridis = assay: Test Example 4: herbicidal effect by soil treatment (symbol G); settings: 320 g/ha
How it was run: (§1)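 Seeds were sown in sterilized diluvial soil, covered with about 1.5 cm of soil, and the soil surface was sprayed with a water-diluted emulsion of the compound at a predetermined rate. Plants grew in a greenhouse at 25° C. to 30° C.; effects were scored visually 3 weeks after application.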

Apera spica-venti [1] = assay: Test Example 4: herbicidal effect by soil treatment (symbol L); settings: 320 g/ha
How it was run: as §1

Monochoria vaginalis = assay: Test Example 1: herbicidal activity, application before weed generation in submerged conditions (symbol C); settings: application herbicide amount 320 g/ha
How it was run: (§2)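 Pre-emergence, paddy conditions: emulsifiable formulation diluted in water, dosed onto floodwater (4 cm depth) on sowing day. Alluvial soil; weeds sown mixed; rice transplanted at 2.5-leaf stage. Greenhouse 25–30 °C, 3 wk. Score 0–5 (5 = ≥90% kill, 0 = ≤5%).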

Stellaria media = assay: Test Example 4: herbicidal effect by soil treatment (symbol P); settings: 320 g/ha
How it was run: as §1

transplanted rice plant = assay: Test Example 1: effect on crop, application before weed generation in submerged conditions (symbol a); settings: application herbicide amount 320 g/ha
How it was run: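 Rice at 2.5 leaf stage transplanted into submerged soil (4 cm depth) sown with three weed species; herbicide applied before weed emergence.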

Veronica persica = assay: Test Example 4: herbicidal effect by soil treatment (symbol R); settings: 320 g/ha
How it was run: as §1

wheat = assay: Test Example 5: effect on crop by foliage application, plastic box (symbol e); settings: 320 g/ha, 3 weeks after application
How it was run: (§3)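 Soil: sterilized diluvial. Container: plastic box, 21 × 13 cm, 7 cm deep. Sowing: spot-like, ~1.5 cm cover. Growth: greenhouse, 25° C. to 30° C.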

Galium spurium [2] = assay: Test Example 4: herbicidal effect by soil treatment (symbol Q); settings: 320 g/ha
How it was run: as §1

[3] = tested on: directly sowed rice plant; assay: Test Example 3: effect on crop by foliage application, Wagner pot (symbol b); settings: application herbicide amount 320 g/ha
How it was run: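 Alluvial soil in a 1/10000-are Wagner pot was flooded to a water depth of 0.1–0.5 cm. Echinochloa crus-galli var. crus-galli, Leptochloa chinensis, Cyperus difformis and rice were sown into it and grown in a greenhouse at 25–30 °C.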

Abutilon theophrasti = assay: Test Example 4: herbicidal effect by soil treatment (symbol M); settings: 320 g/ha
How it was run: as §1

Scirpus juncoides = assay: Test Example 1: herbicidal activity, application before weed generation in submerged conditions (symbol B); settings: application herbicide amount 320 g/ha
How it was run: as §2

[4] = tested on: Echinochloa oryzacola Vasing.; assay: Test Example 1: herbicidal activity, application before weed generation in submerged conditions (symbol A); settings: application herbicide amount 320 g/ha
How it was run: as §2

rapeseed = assay: Test Example 5: effect on crop by foliage application, plastic box (symbol g); settings: 320 g/ha, 3 weeks after application
How it was run: as §3

Lolium multiflorum Lam. = assay: Test Example 5: herbicidal effect by foliage application, plastic box (symbol K); settings: 320 g/ha, 3 weeks after application
How it was run: (§4)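 Greenhouse foliar test: seedlings at 14 days, grown 25° C. to 30° C. in sterilized diluvial soil; compound applied as an aqueous dilution of an emulsion; response read 3 weeks after spraying.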

Apera spica-venti [5] = assay: Test Example 5: herbicidal effect by foliage application, plastic box (symbol L); settings: 320 g/ha, 3 weeks after application
How it was run: as §4

Digitaria ciliaris = assay: Test Example 5: herbicidal effect by foliage application, plastic box (symbol F); settings: 320 g/ha, 3 weeks after application
How it was run: as §4

Avena fatua = assay: Test Example 5: herbicidal effect by foliage application, plastic box (symbol I); settings: 320 g/ha, 3 weeks after application
How it was run: as §4

Galium spurium [6] = assay: Test Example 5: herbicidal effect by foliage application, plastic box (symbol Q); settings: 320 g/ha, 3 weeks after application
How it was run: as §4

CC(CC1CC(O)=C(c2c(C)cc(C)cc2C)C1=O)=NOCc1ccccc1C(F)(F)F (stereo not drawn) [1-116]
G: Setaria viridis, herbicidal effect grade (Setaria viridis): 3 (Herbicidal ratio of 40% or higher and lower than 70%)
L: Apera spica-venti, herbicidal effect grade (Apera spica-venti [1]): 3 (Herbicidal ratio of 40% or higher and lower than 70%)
Herbicidal effect grade, C: Monochoria vaginalis (Monochoria vaginalis): 5 (Herbicidal ratio of 90% or more (almost completely withered))
P: Stellaria media, herbicidal effect grade (Stellaria media): 0 (Herbicidal ratio of 5% or lower (almost no effect))
Effect grade on crop, a: transplanted rice plant (transplanted rice plant): 3 (Herbicidal ratio of 40% or higher and lower than 70%)
R: Veronica persica, herbicidal effect grade (Veronica persica): 0 (Herbicidal ratio of 5% or lower (almost no effect))
e: wheat, effect on crop (criteria 0-5) (wheat): 3 (Herbicidal ratio of 40% or higher and lower than 70%)
Q: Galium spurium, herbicidal effect grade (Galium spurium [2]): 0 (Herbicidal ratio of 5% or lower (almost no effect))
effect on crop b (directly sowed rice plant), grade 0-5 [3]: 5 (Herbicidal ratio of 90% or more (almost completely withered))
M: Abutilon theophrasti, herbicidal effect grade (Abutilon theophrasti): 2 (Herbicidal ratio of 20% or higher and lower than 40%)
Herbicidal effect grade, B: Scirpus juncoides (Scirpus juncoides): 4 (Herbicidal ratio of 70% or higher and lower than 90%)
Herbicidal effect grade, A: Echinochloa oryzacola Vasing. [4]: 5 (Herbicidal ratio of 90% or more (almost completely withered))
g: rapeseed, effect on crop (criteria 0-5) (rapeseed): 5 (Herbicidal ratio of 90% or more (almost completely withered))
K: Lolium multiflorum Lam., herbicidal effect (criteria 0-5) (Lolium multiflorum Lam.): 5 (Herbicidal ratio of 90% or more (almost completely withered))
L: Apera spica-venti, herbicidal effect (criteria 0-5) (Apera spica-venti [5]): 5 (Herbicidal ratio of 90% or more (almost completely withered))
F: Digitaria ciliaris, herbicidal effect (criteria 0-5) (Digitaria ciliaris): 5 (Herbicidal ratio of 90% or more (almost completely withered))
I: Avena fatua, herbicidal effect (criteria 0-5) (Avena fatua): 4 (Herbicidal ratio of 70% or higher and lower than 90%)
Q: Galium spurium, herbicidal effect (criteria 0-5) (Galium spurium [6]): 1 (Herbicidal ratio of 5% or higher and lower than 20%)

CC(CC1CC(O)=C(c2c(C)cc(C)cc2C)C1=O)=NOCc1cccc(C(F)(F)F)c1 (stereo not drawn) [1-117]
G: Setaria viridis, herbicidal effect grade (Setaria viridis): 5 (Herbicidal ratio of 90% or more (almost completely withered))
L: Apera spica-venti, herbicidal effect grade (Apera spica-venti [1]): 5 (Herbicidal ratio of 90% or more (almost completely withered))
Herbicidal effect grade, C: Monochoria vaginalis (Monochoria vaginalis): 5 (Herbicidal ratio of 90% or more (almost completely withered))
P: Stellaria media, herbicidal effect grade (Stellaria media): 0 (Herbicidal ratio of 5% or lower (almost no effect))
Effect grade on crop, a: transplanted rice plant (transplanted rice plant): 5 (Herbicidal ratio of 90% or more (almost completely withered))
R: Veronica persica, herbicidal effect grade (Veronica persica): 0 (Herbicidal ratio of 5% or lower (almost no effect))
e: wheat, effect on crop (criteria 0-5) (wheat): 5 (Herbicidal ratio of 90% or more (almost completely withered))
Q: Galium spurium, herbicidal effect grade (Galium spurium [2]): 0 (Herbicidal ratio of 5% or lower (almost no effect))
effect on crop b (directly sowed rice plant), grade 0-5 [3]: 5 (Herbicidal ratio of 90% or more (almost completely withered))
M: Abutilon theophrasti, herbicidal effect grade (Abutilon theophrasti): 0 (Herbicidal ratio of 5% or lower (almost no effect))
Herbicidal effect grade, B: Scirpus juncoides (Scirpus juncoides): 5 (Herbicidal ratio of 90% or more (almost completely withered))
Herbicidal effect grade, A: Echinochloa oryzacola Vasing. [4]: 5 (Herbicidal ratio of 90% or more (almost completely withered))
g: rapeseed, effect on crop (criteria 0-5) (rapeseed): 5 (Herbicidal ratio of 90% or more (almost completely withered))
K: Lolium multiflorum Lam., herbicidal effect (criteria 0-5) (Lolium multiflorum Lam.): 5 (Herbicidal ratio of 90% or more (almost completely withered))
L: Apera spica-venti, herbicidal effect (criteria 0-5) (Apera spica-venti [5]): 5 (Herbicidal ratio of 90% or more (almost completely withered))
F: Digitaria ciliaris, herbicidal effect (criteria 0-5) (Digitaria ciliaris): 5 (Herbicidal ratio of 90% or more (almost completely withered))
I: Avena fatua, herbicidal effect (criteria 0-5) (Avena fatua): 5 (Herbicidal ratio of 90% or more (almost completely withered))
Q: Galium spurium, herbicidal effect (criteria 0-5) (Galium spurium [6]): 0 (Herbicidal ratio of 5% or lower (almost no effect))

COC(=O)c1ccc(CON=C(C)CC2CC(O)=C(c3c(C)cc(C)cc3C)C2=O)cc1 (stereo not drawn) [1-118]
G: Setaria viridis, herbicidal effect grade (Setaria viridis): 2 (Herbicidal ratio of 20% or higher and lower than 40%)
L: Apera spica-venti, herbicidal effect grade (Apera spica-venti [1]): 3 (Herbicidal ratio of 40% or higher and lower than 70%)
Herbicidal effect grade, C: Monochoria vaginalis (Monochoria vaginalis): 2 (Herbicidal ratio of 20% or higher and lower than 40%)
P: Stellaria media, herbicidal effect grade (Stellaria media): 0 (Herbicidal ratio of 5% or lower (almost no effect))
Effect grade on crop, a: transplanted rice plant (transplanted rice plant): 4 (Herbicidal ratio of 70% or higher and lower than 90%)
R: Veronica persica, herbicidal effect grade (Veronica persica): 0 (Herbicidal ratio of 5% or lower (almost no effect))
e: wheat, effect on crop (criteria 0-5) (wheat): 0 (Herbicidal ratio of 5% or lower (almost no effect))
Q: Galium spurium, herbicidal effect grade (Galium spurium [2]): 0 (Herbicidal ratio of 5% or lower (almost no effect))
effect on crop b (directly sowed rice plant), grade 0-5 [3]: 5 (Herbicidal ratio of 90% or more (almost completely withered))
M: Abutilon theophrasti, herbicidal effect grade (Abutilon theophrasti): 0 (Herbicidal ratio of 5% or lower (almost no effect))
Herbicidal effect grade, B: Scirpus juncoides (Scirpus juncoides): 1 (Herbicidal ratio of 5% or higher and lower than 20%)
Herbicidal effect grade, A: Echinochloa oryzacola Vasing. [4]: 5 (Herbicidal ratio of 90% or more (almost completely withered))
g: rapeseed, effect on crop (criteria 0-5) (rapeseed): 4 (Herbicidal ratio of 70% or higher and lower than 90%)
K: Lolium multiflorum Lam., herbicidal effect (criteria 0-5) (Lolium multiflorum Lam.): 5 (Herbicidal ratio of 90% or more (almost completely withered))
L: Apera spica-venti, herbicidal effect (criteria 0-5) (Apera spica-venti [5]): 3 (Herbicidal ratio of 40% or higher and lower than 70%)
F: Digitaria ciliaris, herbicidal effect (criteria 0-5) (Digitaria ciliaris): 0 (Herbicidal ratio of 5% or lower (almost no effect))
I: Avena fatua, herbicidal effect (criteria 0-5) (Avena fatua): 3 (Herbicidal ratio of 40% or higher and lower than 70%)
Q: Galium spurium, herbicidal effect (criteria 0-5) (Galium spurium [6]): 3 (Herbicidal ratio of 40% or higher and lower than 70%)

CC(CC1CC(O)=C(c2c(C)cc(C)cc2C)C1=O)=NOCc1ccccc1[N+](=O)[O-] (stereo not drawn) [1-119]
G: Setaria viridis, herbicidal effect grade (Setaria viridis): 4 (Herbicidal ratio of 70% or higher and lower than 90%)
L: Apera spica-venti, herbicidal effect grade (Apera spica-venti [1]): 5 (Herbicidal ratio of 90% or more (almost completely withered))
Herbicidal effect grade, C: Monochoria vaginalis (Monochoria vaginalis): 0 (Herbicidal ratio of 5% or lower (almost no effect))
P: Stellaria media, herbicidal effect grade (Stellaria media): 0 (Herbicidal ratio of 5% or lower (almost no effect))
Effect grade on crop, a: transplanted rice plant (transplanted rice plant): 3 (Herbicidal ratio of 40% or higher and lower than 70%)
R: Veronica persica, herbicidal effect grade (Veronica persica): 0 (Herbicidal ratio of 5% or lower (almost no effect))
e: wheat, effect on crop (criteria 0-5) (wheat): 4 (Herbicidal ratio of 70% or higher and lower than 90%)
Q: Galium spurium, herbicidal effect grade (Galium spurium [2]): 0 (Herbicidal ratio of 5% or lower (almost no effect))
effect on crop b (directly sowed rice plant), grade 0-5 [3]: 5 (Herbicidal ratio of 90% or more (almost completely withered))
M: Abutilon theophrasti, herbicidal effect grade (Abutilon theophrasti): 0 (Herbicidal ratio of 5% or lower (almost no effect))
Herbicidal effect grade, B: Scirpus juncoides (Scirpus juncoides): 0 (Herbicidal ratio of 5% or lower (almost no effect))
Herbicidal effect grade, A: Echinochloa oryzacola Vasing. [4]: 1 (Herbicidal ratio of 5% or higher and lower than 20%)
g: rapeseed, effect on crop (criteria 0-5) (rapeseed): 5 (Herbicidal ratio of 90% or more (almost completely withered))
K: Lolium multiflorum Lam., herbicidal effect (criteria 0-5) (Lolium multiflorum Lam.): 5 (Herbicidal ratio of 90% or more (almost completely withered))
L: Apera spica-venti, herbicidal effect (criteria 0-5) (Apera spica-venti [5]): 5 (Herbicidal ratio of 90% or more (almost completely withered))
F: Digitaria ciliaris, herbicidal effect (criteria 0-5) (Digitaria ciliaris): 5 (Herbicidal ratio of 90% or more (almost completely withered))
I: Avena fatua, herbicidal effect (criteria 0-5) (Avena fatua): 5 (Herbicidal ratio of 90% or more (almost completely withered))
Q: Galium spurium, herbicidal effect (criteria 0-5) (Galium spurium [6]): 0 (Herbicidal ratio of 5% or lower (almost no effect))
